From patent US5300527A, “Alkylamino-and alkylamino alkyl diarylketones” (Hoechst-Roussel Pharmaceuticals Incorporated, priority 1992, dated 1994) come the findings set out here.

Experiment [1] has as its system 2-phenyl-1,4-benzoquinone-induced writhing. Nature of the experiment: 2-phenyl-1,4-benzoquinone-induced writhing test in mice (analgesic activity). Format: in vivo. The note with it: Mus musculus, sc, read-out: Inhibition in Writhing (%). From the text:
Compounds of the present invention are useful as analgesic agents due to their ability to alleviate pain in mammals. […] Exptl. Biol. Med. 95, 729 (1957)].
For orientation: An intraperitoneal irritant provokes the stretching counted in writhing tests.

Experiment [2] concerns scopolamine induced memory deficit. Nature of the experiment: Dark Avoidance Assay (reversal of scopolamine induced memory deficit). Type of experiment: in vivo. Conditions: mice. The protocol:
This utility can also be ascertained by determining the ability of these compounds to restore cholinergically deficient memory in the Dark Avoidance Assay. In this assay mice are tested for their ability to remember an unpleasant stimulus for a period of 24 hours. A mouse is placed in a chamber that contains a dark compartment; a strong incandescent light drives it to the dark compartment, where an electric shock is administered through metal plates on the floor. The animal is removed from the testing apparatus and tested again, 24 hours later, for the ability to remember the electric shock.
If scopolamine, an anticholinergic that is known to cause memory impairment, is administered before an animal's initial exposure to the test chamber, the animal re-enters the dark compartment shortly after being placed in the test chamber 24 hours later. This effect of scopolamine is blocked by an active test compound, resulting in a greater interval before re-entry into the dark compartment.
The results for an active compound are expressed as the percent of a group of animals in which the effect of scopolamine is blocked, as manifested by an increased interval between being placed in the test chamber and re-entering the dark compartment.

Setting [3] is: mice, dose 20 mg/kg of body wt., subcutaneous.

Structures can show the parent of a compound that is named as a salt. Where two headings read alike, the source gives them in different places.

Consider `CN(C)c1cccc(CC(=O)C(F)(F)c2ccccc2)c1` [1,1-Difluoro-3-[3-(dimethylamino)phenyl-1-phenyl-2-propanone], for which, in experiment [1] (setting [3]), the inhibition in vivo at 20 mg/kg amounted to 58%. Regarding `CN(C)c1cccc(OCC(=O)Cc2cccc(Cl)c2)c1` [1-(3-Chlorophenyl)-3-[3-(dimethylamino)phenoxy]-2-propanone], the inhibition in vivo at 20 mg/kg in experiment [1] (setting [3]) worked out at 41%.

On to `CN(C)c1cccc(CC(=O)Cc2cccc(Cl)c2)c1` [1-(3-Chlorophenyl)-3-[3-(dimethylamino)phenyl]-2-propanone], for which the inhibition in vivo at 20 mg/kg in experiment [1] (setting [3]) turned out to be 51%.

For `CN(C)c1ccc(C(=O)C(F)(F)c2ccccc2)cc1` [2,2-Difluoro-1-[4-(dimethylamino)phenyl]-2-phenylethanone], the inhibition in vivo at 20 mg/kg in experiment [1] (setting [3]) was found to be 67%. On the same count and under the same terms, then `CN(C)c1cccc(C(=O)COc2cccc(Cl)c2)c1` [2-(3-Chlorophenoxy)-1-[3-(dimethylamino)phenyl]ethanone], with 69%. Regarding `CN(C)c1cccc(C(=O)Cc2cccc(Cl)c2)c1.Cl` [2-(3-Chlorophenyl)-1-[3-(dimethylamino)phenyl]ethanone hydrochloride], the “% of animals with scopolamine induced memory deficit reversal” value in experiment [2] (dose 0.16 mg/kg, s.c.) is reported as 40%. As for `CN(C)c1cccc(C(=O)C(F)(F)c2cccc(Cl)c2)c1` [2-(3-Chlorophenyl)-2,2-difluoro-1-[3-(dimethylamino)phenyl]ethanone hydrochloride], the inhibition in vivo at 20 mg/kg in experiment [1] turned out to be 50%. `CN(C)c1ccc(C(=O)C(F)c2cccc(Cl)c2)cc1` (centres unmarked) [2-(3-Chlorophenyl)-2-fluoro-1-[4-(dimethylamino)phenyl]ethanone]: the inhibition in vivo at 20 mg/kg in experiment [1] (setting [3]) came to 44%. As for `CN(C)c1cccc(C(=O)C(F)(F)C(O)c2cccc(Cl)c2)c1` (centres unmarked) [3-(3-Chlorophenyl)-2,2-difluoro-3-hydroxy-1-[3-(dimethylamino)phenyl]propanone hydrochloride], in experiment [1] (setting [3]), the inhibition in vivo at 20 mg/kg was 63%.

In the case of `CNC(=O)Oc1ccc2c(c1)[C@]1(C)CCN(C)[C@@H]1N2C` [physostigmine, reference compound], in experiment [2] (dose 0.31 mg/kg, s.c. (reference)), the “% of animals with scopolamine induced memory deficit reversal” value was 20%.

For the compound `CCC(=O)O[C@](Cc1ccccc1)(c1ccccc1)[C@H](C)CN(C)C` [propoxyphene, reference compound], in experiment [1], the inhibition in vivo at 3.9 mg/kg worked out at 50%.
